{
  "source": "patent US20110229482A1",
  "about": "“Method of inhibiting infection by HCV, other flaviviridae viruses, and any other virus that complexes to low density lipoprotein or to very low density lipoprotein in blood by preventing viral entry into a cell” (priority 2000, published 2011)",
  "key": {"LDL receptor [1]": {"molecular_target": "T1, LDL receptor (Homo sapiens, UniProt P01130)", "T1 construct": "endogenous in cells; host or cells: G4 B-lymphocyte line (human-mouse heterohybridoma fused with patient B cells), HepG2 hepatoma cells", "T1 sequence (P01130 22-860)": "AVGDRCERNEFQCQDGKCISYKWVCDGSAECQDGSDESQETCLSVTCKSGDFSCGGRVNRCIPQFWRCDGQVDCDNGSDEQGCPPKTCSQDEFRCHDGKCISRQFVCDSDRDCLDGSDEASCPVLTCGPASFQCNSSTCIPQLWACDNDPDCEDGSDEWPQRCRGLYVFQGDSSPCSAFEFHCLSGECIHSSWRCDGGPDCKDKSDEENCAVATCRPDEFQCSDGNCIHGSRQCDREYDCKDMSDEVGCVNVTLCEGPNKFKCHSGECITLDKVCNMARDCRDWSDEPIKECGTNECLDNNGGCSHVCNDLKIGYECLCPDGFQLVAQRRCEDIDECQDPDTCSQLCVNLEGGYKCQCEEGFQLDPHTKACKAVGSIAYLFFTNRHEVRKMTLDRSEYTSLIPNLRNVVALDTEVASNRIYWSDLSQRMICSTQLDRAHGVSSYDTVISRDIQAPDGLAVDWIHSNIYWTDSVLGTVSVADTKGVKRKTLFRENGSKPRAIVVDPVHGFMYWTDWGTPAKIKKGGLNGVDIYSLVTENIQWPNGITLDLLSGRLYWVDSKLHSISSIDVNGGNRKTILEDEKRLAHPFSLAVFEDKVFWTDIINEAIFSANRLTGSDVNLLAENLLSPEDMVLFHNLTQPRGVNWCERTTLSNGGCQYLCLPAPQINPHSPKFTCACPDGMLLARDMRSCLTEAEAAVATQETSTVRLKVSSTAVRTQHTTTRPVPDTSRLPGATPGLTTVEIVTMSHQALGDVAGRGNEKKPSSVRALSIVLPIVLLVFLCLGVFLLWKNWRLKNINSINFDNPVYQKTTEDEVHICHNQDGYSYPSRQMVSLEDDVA", "test": "DiI-LDL endocytosis (uptake) by cultured cells, flow cytometry / fluorescence microscopy", "type": "cell-based", "settings": "for Mean fluorescence: DiI-LDL treatment", "method": "LDL Receptor Assays: Cells were cultured in Roswell Park Memorial Institute (RPMI) medium supplemented either with 10% BVDV-free bovine calf serum or with RPMI medium supplemented with 10% lipoprotein-deficient BVDV-free medium to upregulate expression of the LDL receptor. The cells were then washed twice with phosphate-buffered saline (PBS), pH 7.2. Cytospin preparations were made, fixed with acetone, blocked with 5% normal mouse serum, and the LDL receptor visualized by incubating the slides with 5 μg/ml purified IgG 2a monoclonal anti-LDL receptor antibody followed by a 1:50 dilution of fluorescein (FITC)-labeled goat anti-mouse [F(ab)′2] second antibody (Jackson Immunoresearch, West Grove, Pa.).\nThe cells were washed twice with cold PBS and fixed with 1% buffered paraformaldehyde, and cytospin preparations were made for fluorescent microscopic studies or cells in suspension were analyzed by flow cytometry. Flow cytometric analysis was performed using the Epic XL-MCL cytometer (Coulter Corp., Miami, Fla.) using a 575 BP filter. Nonspecific binding of DiI-LDL was determined using DiI-LDL treated with cyclohexanedione and was subtracted from the DiI-LDL binding to give specific DiI-LDL binding to cultured cells."}, "HCV [2]": {"system": "HCV", "type": "cell-based, hepatitis C virus", "parameters": "key to Endocytosis of 1 × 10^6 gE HCV from each fraction intensity of staining: ++: Moderately positive; +: Weakly positive"}, "LDL receptor [3]": {"system": "LDL receptor", "test": "LDL receptor expression in liver sections of hLDLR Tg mice, fluorescence staining", "type": "in vivo", "settings": "Tg mouse pretreated with 0.5 mg, then inoculated with HCV"}, "HCV [4]": {"system": "HCV", "type": "in vivo, mouse"}, "[5]": {"settings": "density gradient fractions of HCV serum, ISH"}},
  "note": "Like-named read-outs stand apart in the source and are kept apart here.",
  "data": [
    {"compound": "LDL: low density lipoprotein, d=1.019-1.063 g/ml, from normal sera or purchased from Cortex", "values": [
      {"measurement": "Endocytosis of 5 μg DiI-labeled fraction mean fluorescence (log scale)", "setting": "LDL receptor [1]; density gradient fractions of HCV serum", "result": 9.98},
      {"measurement": "Inhibition of uptake of DiI-LDL", "setting": "LDL receptor [1]; upregulated G4 cells, 5 μg DiI-LDL, excess unlabeled LDL", "result": "completely inhibited"},
      {"measurement": "Restoration of endocytosis of \"free\" HCV", "setting": "HCV [2]", "result": "restoration of endocytosis"},
      {"measurement": "Inhibition of endocytosis of HCV (competitive)", "setting": "HCV [2]; HepG2 or B cells (G4 and E11), 25-100 μg/ml", "result": "completely inhibited"},
      {"measurement": "Endocytosis of 1 × 10^6 gE HCV from each fraction % cell positive", "setting": "HCV [2]; [5]", "result": 75, "unit": "%"},
      {"measurement": "Endocytosis of 1 × 10^6 gE HCV from each fraction intensity of staining", "setting": "HCV [2]; [5]", "result": "+"}
    ]},
    {"compound": "CC(C)c1c(C(=O)Nc2ccccc2)c(-c2ccccc2)c(-c2ccc(F)cc2)n1CC[C@@H](O)C[C@@H](O)CC(=O)O", "note": "[atorvastatin]", "values": [
      {"measurement": "Modulation of LDL receptor (fluorescence staining)", "setting": "LDL receptor [3]", "result": "upregulation of the LDL receptor"},
      {"measurement": "Quantitative HCV of the liver", "setting": "HCV [4]; Tg mouse pretreated with 0.5 mg, control mouse 43", "result": 163, "unit": "HCV gE per mg liver"}
    ]},
    {"compound": "soluble LDL receptor: soluble LDL receptor (SEQ ID NO:1)", "values": [
      {"measurement": "Inhibition of endocytosis of HCV", "setting": "HCV [2]; Daudi cells, pretreatment 30 minutes at 37° C., HCV 2 hours at 37° C.", "result": "completely inhibits"}
    ]},
    {"compound": "5^th repeat peptide: 39 amino acid 5th repeat of the ligand binding domain of the LDL receptor, amino acids 193-231 of SEQ ID NO:1", "values": [
      {"measurement": "Inhibition of endocytosis of HCV by hepatocytes", "setting": "HCV [4]; hLDLR Tg mouse, 1 mg one hour prior to intraperitoneal HCV (5.0×10^6 gE)", "result": "completely inhibits"}
    ]},
    {"compound": "DiI-LDL: LDL labeled with 1,1′-dioctadecyl-3,3,3′,3′-tetramethylindocarbocyanine iodine (DiI)", "values": [
      {"measurement": "Mean fluorescence", "setting": "LDL receptor [1]; G4 cells, lipoprotein deficient medium (upregulated LDL receptor)", "result": "16 ± 7"},
      {"measurement": "Mean fluorescence", "setting": "LDL receptor [1]; G4 cells, routine culture medium (RPMI with 10% fetal bovine serum)", "result": "4 ± 2.0"},
      {"measurement": "Mean fluorescence", "setting": "LDL receptor [1]; HepG2 cells, routine culture medium", "result": "16 ± 5"}
    ]},
    {"compound": "heparin sulfate", "values": [
      {"measurement": "Inhibition of endocytosis of HCV", "setting": "HCV [2]; 25 units/ml", "result": "inhibited"}
    ]},
    {"compound": "O=C(O)CN(CCOCCOCCN(CC(=O)O)CC(=O)O)CC(=O)O", "note": "[EGTA, ethylene glycol bis(β-aminoethyl ether)-N,N,N′,N′-tetraacetic acid]", "values": [
      {"measurement": "Inhibition of endocytosis of HCV", "setting": "HCV [2]", "result": "inhibited"}
    ]}
  ]
}
